Assay results reported in patent publication US20250042912A1, “NOVEL NON-FLUORINATED QUINOLONE COMPOUND AND USE THEREOF” (priority 2021, published 2025).
Converted amounts (≈) assume the structure as drawn. Counter-ions that a name gives are not always drawn.

How the values were obtained:
Type in all cases: cell-based
[1] = test system: Propionibacterium acnes ATCC 11827; assay: Minimum inhibitory concentration (MIC) assay, Propionibacterium acnes ATCC 11827; settings: Cutibacterium acnes, ATCC11827; anaerobic culture 35+/-2°C, 48 hours; read with naked eyes
Procedure: (§1) On the day of the experiment, the compound in the flask was dissolved in 100% DMSO until the concentration of mother liquor was 0.4 mg/mL. If the mother liquor was not used on the same day, it was stored at −80° C. for future use. The compound mother liquor and standard antibiotics were subjected to 2-fold gradient dilution with corresponding solvents on a 96-microwell plate (V-bottom) to obtain 100× working solutions (Well 1 to Well 7) in sequence. Among them, the concentrations of the compound were 400 μg/mL, 200 μg/mL, 100 μg/mL, 50 μg/mL, 25 μg/mL, 12.5 μg/mL, 6.25 μg/mL, and 3.125 μg/mL. 100% DMSO was used as growth control (Well 8). As such, the compound motherplate was obtained. Two days before the experiment, anaerobic bacteria (Propionibacterium acnes) stored in a cryogenic tube at −80° C. were scribed on an MBA (Brucella Agar+5% (v/v) defibrillated sheep blood+[…] Hemin+1 μg/mLVitamin K1) plate. The anaerobic bacteria were placed in a 35+/−2° C. anaerobic incubator for 42-48 hours of cultivation. On the day of the experiment, the plate was taken out, clones were picked from the plate and suspended in physiological saline. Then, the turbidity of the bacterial suspension (containing 1.0-2.0×10^8 CFU/mL) was adjusted to OD600=0.2 by a turbidity meter. Then, the adjusted bacterial suspension was diluted to an appropriate concentration with the assay culture medium: about 5×10^5 CFU/mL for aerobic bacteria, and about 1×10^6 CFU/mL for anaerobic bacteria. As such, the inoculating solution was obtained. […] Therefore, the final assay concentrations of the compound were 4 μg/mL, 2 μg/mL, 1 μg/mL, 0.5 μg/mL, 0.25 μg/mL, 0.125 μg/mL, 0.06 μg/mL and 0.03 μg/mL. The total volume of each well on the assay plate was 200 μL: containing 1% DMSO, about 5×10^5 CFU/mL of aerobic bacteria and about 1×10^6 CFU/mL of anaerobic bacteria. All assay plates for aerobic bacteria were aerobically cultured at 35+/−2° C. for 16 to 20 hours, and all assay plates for anaerobic bacteria were anaerobically cultured in an anaerobic incubator at 35+/−2° C. for 48 hours. Note: for anaerobic bacteria, both the preparation of bacterial solution in step 2 and the inoculation of bacterial solution in step 3 were operated in an anaerobic workstation.

[2] = test system: Propionibacterium acnes ATCC 6919; assay: Minimum inhibitory concentration (MIC) assay, Propionibacterium acnes ATCC 6919; settings: Cutibacterium acnes, ATCC6919; anaerobic culture 35+/-2°C, 48 hours; read with naked eyes
Procedure: as §1

[3] = test system: Staphylococcus epidermidis ATCC 35983; assay: Minimum inhibitory concentration (MIC) assay, Staphylococcus epidermidis ATCC 35983; settings: ATCC35983, aerobic culture 35+/-2°C, 16 to 20 hours, read with naked eyes
Procedure: (§2) On the day of the experiment, the compound in the flask was dissolved in 100% DMSO until the concentration of mother liquor was 0.4 mg/mL. If the mother liquor was not used on the same day, it was stored at −80° C. for future use.
(§3) The compound mother liquor and standard antibiotics were subjected to 2-fold gradient dilution with corresponding solvents on a 96-microwell plate (V-bottom) to obtain 100× working solutions (Well 1 to Well 7) in sequence. Among them, the concentrations of the compound were 400 μg/mL, 200 μg/mL, 100 μg/mL, 50 μg/mL, 25 μg/mL, 12.5 μg/mL, 6.25 μg/mL, and 3.125 μg/mL. 100% DMSO was used as growth control (Well 8). As such, the compound motherplate was obtained.
(§4) One day before the experiment, aerobic bacteria (Staphylococcus epidermidis) stored in a cryogenic tube at −80° C. were scribed on an MHA (Cation-adjusted Mueller-Hinton agar) plate. The aerobic bacteria were placed in a 35+/−2° C. incubator for 18-24 hours of aerobic cultivation.
(§5) On the day of the experiment, the plate was taken out, clones were picked from the plate and suspended in physiological saline. Then, the turbidity of the bacterial suspension (containing 1.0-2.0×10^8 CFU/mL) was adjusted to OD600=0.2 by a turbidity meter. Then, the adjusted bacterial suspension was diluted to an appropriate concentration with the assay culture medium: about 5×10^5 CFU/mL for aerobic bacteria, and about 1×10^6 CFU/mL for anaerobic bacteria. As such, the inoculating solution was obtained.
(§6) 2 μl of 2-fold series dilution of 100× high-concentration working solution was transferred from a compound mother plate (prepared in step 1) to a round-bottom 96-well plate, and then 198 μL of bacterial inoculating solution (prepared in step 2) was added to each well to obtain an MIC assay plate. Therefore, the final assay concentrations of the compound were 4 μg/mL, 2 μg/mL, 1 μg/mL, 0.5 μg/mL, 0.25 μg/mL, 0.125 μg/mL, 0.06 μg/mL and 0.03 μg/mL. The total volume of each well on the assay plate was 200 μL: containing 1% DMSO, about 5×10^5 CFU/mL of aerobic bacteria and about 1×10^6 CFU/mL of anaerobic bacteria.
(§7) All assay plates for aerobic bacteria were aerobically cultured at 35+/−2° C. for 16 to 20 hours, and all assay plates for anaerobic bacteria were anaerobically cultured in an anaerobic incubator at 35+/−2° C. for 48 hours.

[4] = test system: Staphylococcus epidermidis ATCC 35984; assay: Minimum inhibitory concentration (MIC) assay, Staphylococcus epidermidis ATCC 35984; settings: ATCC35984, aerobic culture 35+/-2°C, 16 to 20 hours, read with naked eyes
Procedure: as §2, §3, §4, §5, §6, §7

[5] = test system: Staphylococcus epidermidis ATCC 12228; assay: Minimum inhibitory concentration (MIC) assay, Staphylococcus epidermidis ATCC 12228; settings: ATCC12228, aerobic culture 35+/-2°C, 16 to 20 hours, read with naked eyes
Procedure: as §2, §3, §4, §5, §6, §7

Structure (SMILES)	MIC [1]	MIC [2]	MIC [3]	MIC [4]	MIC [5]
CCCNc1cc2c(cn1)-c1ccc3c(=O)c(C(=O)O)cn(C4CC4)c3c1COC2 [Trifluoroacetate of Compound 13]	0.25 µg/mL	0.125 µg/mL	0.06 µg/mL	0.06 µg/mL	0.06 µg/mL
O=C(O)c1cn(C2CC2)c2c3c(ccc2c1=O)-c1cnc(NCc2ccccc2)cc1COC3 [Trifluoroacetate of Compound 15]	0.5 µg/mL	0.125 µg/mL	0.06 µg/mL	0.06 µg/mL	0.06 µg/mL
CNc1cc2c(cn1)-c1ccc3c(=O)c(C(=O)O)cn(C4CC4)c3c1CCC2 [Trifluoroacetate of Compound 20]	2 µg/mL	1 µg/mL	0.125 µg/mL	0.125 µg/mL	0.125 µg/mL
O=C(O)c1cn(C2CC2)c2c3c(ccc2c1=O)-c1cnccc1COC3 [Trifluoroacetate of Compound 11]	0.25 µg/mL	0.5 µg/mL	0.06 µg/mL	0.125 µg/mL	0.03 µg/mL
COc1cc2c(cn1)-c1ccc3c(=O)c(C(=O)O)cn(C4CC4)c3c1COC2 [Compound 5]	0.06 µg/mL (≈ 0.159 µM)	0.06 µg/mL (≈ 0.159 µM)	0.06 µg/mL (≈ 0.159 µM)	0.06 µg/mL (≈ 0.159 µM)	0.06 µg/mL (≈ 0.159 µM)
N=C(N)Nc1cc2c(cn1)-c1ccc3c(=O)c(C(=O)O)cn(C4CC4)c3c1COC2 [Trifluoroacetate of Compound 27]	1 µg/mL	1 µg/mL	0.5 µg/mL	0.5 µg/mL	0.5 µg/mL
NCCNc1cc2c(cn1)-c1ccc3c(=O)c(C(=O)O)cn(C4CC4)c3c1COC2 [Trifluoroacetate of Compound 19]	2 µg/mL	2 µg/mL	1 µg/mL	1 µg/mL	2 µg/mL
N=C(N)NOCCOCCNc1cc2c(cn1)-c1ccc3c(=O)c(C(=O)O)cn(C4CC4)c3c1COC2 [Hydrochloride of Compound 29]	1 µg/mL	2 µg/mL	2 µg/mL	1 µg/mL	2 µg/mL
Cc1cc2c(cn1)-c1ccc3c(=O)c(C(=O)O)cn(C4CC4)c3c1COC2 [Sodium salt of Compound 10]	0.125 µg/mL	0.125 µg/mL	0.06 µg/mL	≤ 0.03 µg/mL	0.06 µg/mL
O=C(O)c1cn(C2CC2)c2c3c(ccc2c1=O)-c1cc2nc[nH]c2cc1COC3 [Compound 3]	0.06 µg/mL (≈ 0.155 µM)	0.06 µg/mL (≈ 0.155 µM)	0.06 µg/mL (≈ 0.155 µM)	0.06 µg/mL (≈ 0.155 µM)	0.06 µg/mL (≈ 0.155 µM)
O=C(O)c1cn(C2CC2)c2c3c(ccc2c1=O)-c1cnc(NC[C@H](O)CO)cc1COC3 [Trifluoroacetate of Compound 22]	0.25 µg/mL	0.25 µg/mL	0.25 µg/mL	0.12 µg/mL	0.25 µg/mL
